Assay results: publication PMC10375533, “Preference of Bacterial Rhamnosyltransferases for 6-Deoxysugars Reveals a Strategy To Deplete O-Antigens” (Journal of the American Chemical Society, 2023)
“Also recorded” adds a separate entry of the source. Where two headings read alike, the source gives them in different places.

Legend:
T. thermophilus RfbF = T. thermophilus RfbF (Thermus thermophilus, UniProt Q72KB9); assay: Isothermal titration calorimetry (ITC) binding measurements with RfbF; conditions: for ΔG / ΔH / ΔS / KD / binding to RfbF by ITC (in words) / Kd / n-value (stoichiometry): ITC; for fold increase in KD relative to dTDP-β-L-Rha: ITC with RfbF, compared to the native donor; for n-value (stoichiometry): ligands with sigmoidal binding curves, SD in parentheses, n = 3
E. coli WbbL [1] = molecular target: T1, E. coli WbbL (Escherichia coli, UniProt P36667); assay: In vitro inhibition assay of E. coli WbbL with monosaccharides and compound 2; format: biochemical; conditions: 5 mM inhibitor, 250 µM dTDP-β-L-Rha, 1 mM GlcNAc-PP-undecaprenol, 8 min
Description: Primers were purchased from Invitrogen and sequencing was completed by GENEWIZ (Azenta) or EtonBio. Chemicals were purchased from Sigma Aldrich, CarboSynth, Fisher Scientific, and Cayman without further purification. 1H, 13C, and 31P NMR spectra were recorded on a Bruker Avance III 400, 500, or 600 MHz instrument. All spectra were calibrated using residual non-deuterated solvent as an internal reference and processed using MestReNova (authorized to NYU). Gel filtration purification and analyses was performing using at AKTA pure 15 L instrument (UNICORN™ software, GE Healthcare). HRMS analyses were acquired on an Agilent 6224 Accurate-Mass time-of-flight LC/MS (LC-TOF) spectrometer equipped with an electrospray ionization (ESI) source with an autosampler. GraphPad Prism software 9.0 was used for all plotting and data analysis unless otherwise noted. Statistical significance of grouped data was assessed using paired t-tests in Prism. For the IC50 calculation, data were fit in Prism using the equation log(inhibitor) versus response (three parameters): y = bottom + (top-bottom)/(1+10^(X-log IC50)) based on the assumption the Hill slope would be 1, as predicted by ITC results with n ~ 1 for donor ligands. Data was normalized to controls without enzyme and with no inhibitor added. Confidence intervals were calculated based on the standard error. 1M TEAB buffer was prepared by suspending triethylamine (1 mol, 139 mL) in water (700 mL) and passing carbon dioxide (from evaporated dry ice) through the mixture until the pH=7.5. The buffer was diluted to 1L and stored as a stock solution at 4 °C. Prior to use it was diluted to 50 mM in deionized H2O […]
Methods for protein and cellular biochemistry/bioinformatics used in this study.
Bioinformatic approach to identify Thermus thermophilus RfbF as a putative glycolipid RT.
The Carbohydrate-Active Enzymes Database (CAZy.org) was used to identify thermophilic organisms with annotated glycosyltransferases (GTs).11-12 Genes annotated as wbbL have been experimentally shown to encode dTDP-rhamnosyltransferases that transfer L-Rha onto N-acetyl--a-D-glucosamine-1-diphospholipid acceptors.13-14 In Shigella flexneri, the protein encoded by rfbF was noted to carry out the same biochemical activity as WbbL based on genetic and LPS analyses.15-16 Both E. coli WbbL and S. flexneri RfbF belong to the GT2 family. A CAZy search for rfbF and wbbL was performed in the genomes of Gram-negative extreme thermophiles, which […]
(GenBank: AAS80876.1), which had not yet been biochemically characterized. Protein ANalysis […]
(§1) thermodynamic values were evaluated using ITCRun software (TA Instruments) and fit with a […]
Specific activities were determined by modification of the protocol outlined by Li et al. […]

E. coli WbbL [2] = molecular target: T1, E. coli WbbL; assay: Specific activity assay of rhamnosyltransferase (HPLC, rSAP-coupled), E. coli WbbL membrane fraction; format: biochemical; conditions: native donor dTDP-β-L-Rha, t = 1 h
Description: as §1
Specific activity assays for bacterial rhamnosyltransferases from different species.
Specific activities were determined by modification of the protocol outlined by Li et al.
Specifically, 0.155 mg/mL RfbF, 0.081 mg/mL E. coli WbbL, or 0.111 mg/mL Mtb WbbL were used to initiate the following reaction mixtures: 25 mM Tris-HCl pH 7.5, 1 mM GlcNAc-PP-lipid, 1 mM donor-substrate, 5 mM MgCl2, 1 U rSAP (1000 U/mL stock solution), 1% (v/v) Triton X-100, 5% (v/v) DMSO (for reactions containing C55, C20, C15 lipid) or MeOH (for reactions containing C35 lipid) in a total volume of 20 µL. […]
Consumption of NDP-sugar donors was monitored on reverse phase HPLC equipped with a Phenomenex 5 µm, 21.2 x 150 mm, NX-C18 Å Gemini column with solvent A (50 mM TEAB pH 8.0) and solvent B (acetonitrile) using the following linear gradient: 0% B (t = 0-5 min), 0-5% B (t = 5-25 min), 5-90% B (t = 25-35 min). Absorbance at wavelength (l) = 254 nm was monitored.
Consumption was quantified by integration of dTDP-sugar donors relative to the total amount of thymidine-containing products, which was then subtracted from the starting dTDP-sugar concentration at the t = 0 time point. […] Characterization of each reaction was monitored by scanning in the negative ion mode and analyzed using Agilent MassHunter […]

[3] = 25 °C, ligand titrated into 110 µM RfbF
[4] = 25 °C, ligand titrated into 110 µM RfbF, one-site model, spread = SD, triplicate
[5] = ligand titrated into 110 µM RfbF
[6] = KD, 25 °C, ligand titrated into 110 µM RfbF, one-site model, spread = SD, triplicate

Sequence of T. thermophilus RfbF (Q72KB9 entry or part of it): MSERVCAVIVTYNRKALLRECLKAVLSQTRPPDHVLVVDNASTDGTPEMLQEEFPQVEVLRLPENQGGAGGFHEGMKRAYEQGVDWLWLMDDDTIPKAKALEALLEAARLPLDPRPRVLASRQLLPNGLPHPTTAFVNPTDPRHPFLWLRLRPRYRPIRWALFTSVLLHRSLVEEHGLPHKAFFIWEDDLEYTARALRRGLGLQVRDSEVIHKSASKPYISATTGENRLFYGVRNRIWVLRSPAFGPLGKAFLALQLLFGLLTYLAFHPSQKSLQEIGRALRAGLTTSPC
T1 sequence (P36667 whole entry, looked up): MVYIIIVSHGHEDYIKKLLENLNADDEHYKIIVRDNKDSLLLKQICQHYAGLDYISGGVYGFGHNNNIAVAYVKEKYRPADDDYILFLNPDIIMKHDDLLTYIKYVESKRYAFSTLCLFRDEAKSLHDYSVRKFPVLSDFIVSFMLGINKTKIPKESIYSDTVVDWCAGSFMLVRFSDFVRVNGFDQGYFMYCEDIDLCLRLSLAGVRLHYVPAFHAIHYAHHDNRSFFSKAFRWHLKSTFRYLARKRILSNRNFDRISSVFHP

Molecule | ΔG (T. thermophilus RfbF; [3]) | ΔH (T. thermophilus RfbF; [3]) | ΔS (T. thermophilus RfbF; [3]) | binding to RfbF by ITC (in words) (T. thermophilus RfbF; [5]) | Kd (T. thermophilus RfbF; [6]) [µM] | other results
CC1OC(OP(=O)(O)OP(=O)(O)OCC2OC(n3cnc4c(=O)[nH]c(N)nc43)C(O)C2O)C(O)C(O)C1O [GDP-β-L-Rha, GDP-β-L-rhamnose] | N/B | N/B | N/B | no measurable; also recorded: no binding |  | KD (T. thermophilus RfbF; [4]): N/B
OC[C@@H]1OC(O)[C@H](O)[C@H](O)[C@H]1O (stereo partly drawn) [L-Man, L-Mannose, reference compound] |  |  |  |  |  | inhibition of E. coli WbbL (E. coli WbbL [1]): Lack of inhibition
CC1OC(OP(=O)(O)O)C(O)C(O)C1O [L-Rha-1-phosphate, L-Rhamnose-1-phosphate, reference compound] |  |  |  |  |  | Kd (T. thermophilus RfbF; 5-10 mM ligand titrated into 110 µM RfbF, read-out: KD (beyond measurable limit)): > 1000 µM
N[C@@H](CO)C(=O)O [Ser] |  |  |  |  |  | turnover as noncanonical acceptor with the native donor (E. coli WbbL [2]): no turnover
CC(=O)NC1C(OP(=O)(O)OP(=O)(O)OCC2OC(n3ccc(=O)[nH]c3=O)C(O)C2O)OC(CO)C(O)C1O [UDP-α-D-GlcNAc, UDP-a-N-acetyl-D-glucosamine, reference compound] | N/B | N/B | N/B |  |  | turnover as noncanonical acceptor with the native donor (E. coli WbbL [2]; listed as UDP-α-GlcNAc): no turnover; also recorded: not used as an acceptor; KD (T. thermophilus RfbF; [4]): N/B; binding to RfbF by ITC (in words) (T. thermophilus RfbF; ligand titrated into 110 µM RfbF, listed as UDP-a-D-GlcNAc): no; binding to RfbF by ITC (in words) (T. thermophilus RfbF; ligand titrated into 110 µM RfbF, listed as UDP-α-GlcNAc): did not bind at μM concentrations
CC1OC(OP(=O)(O)OP(=O)(O)OCC2OC(n3ccc(=O)[nH]c3=O)C(O)C2O)C(O)C(O)C1O [UDP-β-L-Rha, UDP-β-L-rhamnose] | 8.55 (3.65) kcal/mol | -6.72 (1.01) kcal/mol | -51.2 (14.7) cal/mol·K |  | 36.1 ± 10.7 | fold increase in KD relative to dTDP-β-L-Rha (T. thermophilus RfbF): ~4.5 fold; n-value (stoichiometry) (T. thermophilus RfbF): 1.30 (0.28)
Cc1cn([C@H]2C[C@H](O)[C@@H](COP(=O)(O)OP(=O)(O)O)O2)c(=O)[nH]c1=O [dTDP, reference compound] |  |  |  | no binding profile is observed; also recorded: did not bind |  | 
Cc1cn(C2CC(O)C(COP(=O)(O)OP(=O)(O)OC3OC(CO)C(O)C(O)C3O)O2)c(=O)[nH]c1=O [dTDP-α-D-Glc, dTDP-a-D-glucose, reference compound] |  |  |  |  | 637 ± 96 | fold increase in KD relative to dTDP-β-L-Rha (T. thermophilus RfbF; listed as dTDP-α-Glc): ~75 fold
Cc1cn(C2CC(O)C(COP(=O)(O)OP(=O)(O)OC3OC(C)C(O)C(O)C3O)O2)c(=O)[nH]c1=O [dTDP-α-L-Rha, dTDP-a-L-rhamnose] | N/B | N/B | N/B | no detectable binding |  | KD (T. thermophilus RfbF; [4]): N/B; binding to RfbF by ITC (in words) (T. thermophilus RfbF; ligand titrated into 110 µM RfbF, listed as dTDP-a-L-Rha): no measurable
Cc1cn(C2CC(O)C(COP(=O)(O)OP(=O)(O)OC3OC(C)C(O)C(O)C3O)O2)c(=O)[nH]c1=O [dTDP-β-L-6dTal, dTDP-6-deoxy-β-L-talose] | 0.415 (2.847) kcal/mol | -8.17 (2.70) kcal/mol | -28.8 (3.7) cal/mol·K | comparable affinity as the native substrate | 16.5 | n-value (stoichiometry) (T. thermophilus RfbF): 0.934 (0.028)
Cc1cn(C2CC(O)C(COP(=O)(O)OP(=O)(O)OC3OC(C)C(O)C(O)C3O)O2)c(=O)[nH]c1=O [dTDP-β-L-Fuc, dTDP-β-L-fucose] |  |  |  |  | 126 ± 1 | fold increase in KD relative to dTDP-β-L-Rha (T. thermophilus RfbF): ~15 fold
Cc1cn(C2CC(O)C(COP(=O)(O)OP(=O)(O)OC3OC(CO)C(O)C(O)C3O)O2)c(=O)[nH]c1=O [dTDP-β-L-Man, dTDP-β-L-mannose] |  |  |  |  | 496 ± 56 | fold increase in KD relative to dTDP-β-L-Rha (T. thermophilus RfbF): 60 fold
L-rhamnose [reference compound] |  |  |  |  |  | inhibition of E. coli WbbL (E. coli WbbL [1]): 38%
